According to US7915291B2, “Hepatitis C virus inhibitors” (Bristol-Myers Squibb Company, priority 2002, dated 2011):
Read-outs that look alike come from different tables or passages of the source.

Experiments:
[1] = target: HCV NS3/4A protease complex, BMS strain (UniProt P27958, C1454S/C1711G, species not given/STRAIN_BMS); experiment: Recombinant HCV NS3/4A protease complex FRET peptide assay (BMS strain); assay type: biochemical, HCV genotype 1a; conditions: NS3/4A BMS strain; read-out: IC50 range
Summary of the method: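 Recombinant BMS-strain NS3/4A (His-tagged NS4A with three-lysine tail, E. coli) at 2-3 nM preincubated 1 min with compound, then 2 μM ester-linked NS4A/NS4B-based FRET peptide added. Fluorescence followed in real time ~15 min at 25° C. Percent inhibition from slope of linear fluorescence change versus no-compound control.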

[2] = tested on: HCV replicon in Huh7 cells; experiment: HCV replicon cell-based assay; parameters: species or system HCV strain 1B; conditions: HCV replicon, Huh7 cells, read-out: EC50 range

SMILES | IC50 [1] | EC50 ([2]; Hepatitis C virus, Huh-7) | EC50 [2]
C=CC1C[C@]1(NC(=O)[C@@H]1C[C@@H](Oc2nccc3c(C(=O)c4cccs4)c(OC)ccc23)CN1C(=O)[C@@H](NC(=O)OC(C)(C)C)C(C)(C)C)C(=O)NS(=O)(=O)C1CC1 (some centres unmarked) [Compound 209] | < 100 nM | 100 to 1000 nM | 
C=CC1C[C@]1(NC(=O)[C@@H]1C[C@@H](Oc2nccc3cc(C)ccc23)CN1C(=O)[C@@H](NC(=O)OC(C)(C)C)C(C)(C)C)C(=O)NS(=O)(=O)C1CC1 (stereo partly drawn) [Compound 210, BOCNH-P3(L-tert-BuGly)-P2[(4R)-(6-methyl isoquinolin-1-oxo)-S -proline]-P1(1R,2S Vinyl Acca)-CONHSO2-Cyclopropane] | < 100 nM | < 100 nM | 
C=CC1C[C@]1(NC(=O)[C@@H]1C[C@@H](Oc2nccc3c4c(ccc23)OCO4)CN1C(=O)[C@@H](NC(=O)OC(C)(C)C)C(C)(C)C)C(=O)NS(=O)(=O)C1CC1 (stereo partly drawn) [Compound 211, BOCNH-P3(L-t-BuGly)-P2-[(4R)-(1,3-Dioxa-7-aza-cyclopenta[α]naphthalen-6-ol)-S -proline]-P1(1R,2S VinylAcca)-CONHSO2Cyclopropane] | < 100 nM | < 100 nM | 
C=CC1C[C@]1(NC(=O)[C@@H]1C[C@@H](Oc2cc3c(Cl)nccc3c3c2OCO3)CN1C(=O)[C@@H](NC(=O)OC(C)(C)C)C(C)(C)C)C(=O)NS(=O)(=O)C1CC1 (stereo partly drawn) [Compound 212, BOCNH-P3(L-t-BuGly)-P2[(4R)-(6-Chloro-1,3-dioxa-7aza -cyclopenta[α]naphthalen-4-oxo)-S-proline]-P1(1R,2S VinylAcca)-CONHSO2Cyclopropane] | < 100 nM | < 100 nM | 
C=CC1C[C@]1(NC(=O)[C@@H]1C[C@@H](Oc2nccc3c4c(c(SC)cc23)OCO4)CN1C(=O)[C@@H](NC(=O)OC(C)(C)C)C(C)(C)C)C(=O)NS(=O)(=O)C1CC1 (stereo partly drawn) [Compound 213, BOCNH-P3(L-t-BuGly)-P2[(4R)-(4-methylthio-1,3-dioxa-7-aza-cyclopenta[a]naphthalen-6-yloxy)-S-proline]-P1(1R,2S VinylAcca)-CONHSO2Cyclopropane] | < 100 nM | < 100 nM | 
C=CC1C[C@]1(NC(=O)[C@@H]1C[C@@H](Oc2nc3c(c4ccccc24)CCC3)CN1C(=O)[C@@H](NC(=O)OC(C)(C)C)C(C)(C)C)C(=O)NS(=O)(=O)C1CC1 (stereo partly drawn) [Compound 215, BOCNH-P3(L-t-BuGly)-P2[(1R)-(2,3-dihydro-1 H-4aza -cyclopenta[α]naphthalen-5-yloxy)-S-proline]-P1(1R,2S VinylAcca)-CONHSO2Cyclopropane] | < 100 nM | < 100 nM | 
C=CC1C[C@]1(NC(=O)[C@@H]1C[C@@H](Oc2nc3c(c4ccccc24)OCC3)CN1C(=O)[C@@H](NC(=O)OC(C)(C)C)C(C)(C)C)C(=O)NS(=O)(=O)C1CC1 (stereo partly drawn) [Compound 219, BOCNH-P3(L-t-BuGly)-P2[(4R)-(2,3-dihydro-1-oxa-4aza -cyclopenta[α]naphthalen-5-yloxy)-S-proline]-P1(1R,2S VinylAcca)-CONHSO2Cyclopropane] | < 100 nM | < 100 nM | 
C=CC1C[C@]1(NC(=O)[C@@H]1C[C@@H](Oc2nc3ccoc3c3ccccc23)CN1C(=O)[C@@H](NC(=O)OC(C)(C)C)C(C)(C)C)C(=O)NS(=O)(=O)C1CC1 (stereo partly drawn) [Compound 220, BOCNH-P3(L-t-BuGly)-P2[(4R)-(1-oxa-4-aza-cyclopenta[α]naphthalen-5-yloxy)-S-proline]-P1(1R,2S VinylAcca)-CONHSO2Cyclopropane] | < 100 nM | < 100 nM | 
C=CC1C[C@]1(NC(=O)[C@@H]1C[C@@H](Oc2nc(Br)c(OC)c3ccccc23)CN1C(=O)[C@@H](NC(=O)OC(C)(C)C)C(C)(C)C)C(=O)NS(=O)(=O)C1CC1 (some centres unmarked) [Compound 223] | < 100 nM | < 100 nM | 
C=CC1CC1(NC(=O)C1CC(Oc2nc(Br)c(O)c3ccccc23)CN1C(=O)C(NC(=O)OC(C)(C)C)C(C)(C)C)C(=O)NS(=O)(=O)C1CC1 (centres unmarked) [Compound 224] | < 100 nM | 100 to 1000 nM | 
C=CC1CC1(NC(=O)C1CC(Oc2nc(Br)c(OCOCC[Si](C)(C)C)c3ccccc23)CN1C(=O)C(NC(=O)OC(C)(C)C)C(C)(C)C)C(=O)NS(=O)(=O)C1CC1 (centres unmarked) [Compound 225] | < 100 nM | 100 to 1000 nM | 
C=CC1C[C@]1(NC(=O)[C@@H]1C[C@@H](Oc2nc3c(c4ccccc24)OCOC3)CN1C(=O)[C@@H](NC(=O)OC(C)(C)C)C(C)(C)C)C(=O)NS(=O)(=O)C1CC1 (stereo partly drawn) [Compound 227, BOCNH-P3(L-t-BuGly)-P2[(4R)-(1,3-oxazino[5,6-c]isoquinoline-6-oxo)-S-proline]-P1(1R,2S VinylAcca)-CONHSO2Cyclopropane] | < 100 nM | < 100 nM | 
C=C[C@@H]1C[C@]1(NC(=O)[C@@H]1C[C@@H](Oc2nc(-c3ccoc3)c(OC)c3ccccc23)CN1C(=O)[C@@H](NC(=O)OC(C)(C)C)C(C)(C)C)C(=O)NS(=O)(=O)C1CC1 [Compound 229, BOCNH-P3(L-t-BuGly)-P2[(4R)-(3-furan-3-yl-4methoxy -isoquinolin-1-oxo)-S-proline]-P1(1R,2S VinylAcca)-CONHSO2Cyclopropane] | < 100 nM |  | < 100 nM
C=C[C@@H]1C[C@]1(NC(=O)[C@@H]1C[C@@H](Oc2nc(-c3ccco3)c(OC)c3ccccc23)CN1C(=O)[C@@H](NC(=O)OC(C)(C)C)C(C)(C)C)C(=O)NS(=O)(=O)C1CC1 [Compound 230, BOCNH-P3(L-t-BuGly)-P2[(4R)-(3-furan-2-yl-4-methoxy -isoquinolin-1-oxo)-S-proline]-P1(1R,2S VinylAcca)-CONHSO2Cyclopropane] | 100 to 1000 nM |  | 100 to 1000 nM
C=CC1C[C@]1(NC(=O)[C@@H]1C[C@@H](Oc2nc(-c3nccs3)c(OC)c3ccccc23)CN1C(=O)[C@@H](NC(=O)OC(C)(C)C)C(C)(C)C)C(=O)NS(=O)(=O)C1CC1 (stereo partly drawn) [Compound 232, BOCNH-P3(L-t-BuGly)-P2[(4R)-(4-methoxy-3-thiazol-2-yl -isoquinolin-1-oxo)-S-proline]-P1(1R,2S VinylAcca)-CONHSO2Cyclopropane] | < 100 nM | < 100 nM | 
C=CC1C[C@]1(NC(=O)[C@@H]1C[C@@H](Oc2nccc3occc23)CN1C(=O)[C@@H](NC(=O)OC(C)(C)C)C(C)(C)C)C(=O)NS(=O)(=O)C1CC1 (some centres unmarked) [Compound 233] | 100 to 1000 nM | 100 to 1000 nM | 
C=CC1C[C@]1(NC(=O)[C@@H]1C[C@@H](Oc2nccc3sccc23)CN1C(=O)[C@@H](NC(=O)OC(C)(C)C)C(C)(C)C)C(=O)NS(=O)(=O)C1CC1 (some centres unmarked) [Compound 235] | < 100 nM | 100 to 1000 nM | 
C=CC1C[C@]1(NC(=O)[C@@H]1C[C@@H](Oc2cnc3ccccc3n2)CN1C(=O)[C@@H](NC(=O)OC(C)(C)C)C(C)(C)C)C(=O)NS(=O)(=O)C1CC1 (stereo partly drawn) [Compound 237, BOCNH-P3(L-t-BuGly)-P2[(4R)-(quinoxaline-2-oxo)-S-proline]-P1(1R,2S VinylAcca)-CONHSO2Cyclopropane] | < 100 nM | 100 to 1000 nM | 
C=CC1C[C@]1(NC(=O)[C@@H]1C[C@@H](Oc2cc(C(F)(F)F)nc3ccc(F)cc23)CN1C(=O)[C@@H](NC(=O)OC(C)(C)C)C(C)(C)C)C(=O)NS(=O)(=O)C1CC1 (stereo partly drawn) [Compound 238, BOCNH-P3(L-t-BuGly)-P2[(4R)-(2-trifluoro-6-fluoroquinoline-4-oxo)-S-proline]-P1(1R,2S VinylAcca)-CONHSO2Cyclopropane] | < 100 nM | 100 to 1000 nM | 
C=CC1C[C@]1(NC(=O)[C@@H]1C[C@@H](Oc2ccnc3ccc(F)cc23)CN1C(=O)[C@@H](NC(=O)OC(C)(C)C)C(C)(C)C)C(=O)NS(=O)(=O)C1CC1 (stereo partly drawn) [Compound 239, BOCNH-P3(L-t-BuGly)-P2[(4R)-(6-fluoroquinoline-4-oxo)-S -proline]-P1(1R,2S VinylAcca)-CONHSO2Cyclopropane] | < 100 nM | < 100 nM | 
C=CC1C[C@]1(NC(=O)[C@@H]1C[C@@H](Oc2ccc3nccc(Cl)c3c2)CN1C(=O)[C@@H](NC(=O)OC(C)(C)C)C(C)(C)C)C(=O)NS(=O)(=O)C1CC1 (stereo partly drawn) [Compound 240, BOCNH-P3(L-t-BuGly)-P2[(4R)-(4-chloroquinoline-6-oxo)-S -proline]-P1(1R,2S VinylAcca)-CONHSO2Cyclopropane] | < 100 nM | < 100 nM | 
C=CC1C[C@]1(NC(=O)[C@@H]1C[C@@H](Oc2ccnc3c(F)cccc23)CN1C(=O)[C@@H](NC(=O)OC(C)(C)C)C(C)(C)C)C(=O)NS(=O)(=O)C1CC1 (stereo partly drawn) [Compound 241, BOCNH-P3(L-t-BuGly)-P2[(4R)-(8-fluoroquinoline-4-oxo)-S -proline]-P1(1R,2S VinylAcca)-CONHSO2Cyclopropane] | < 100 nM | < 100 nM | 
C=CC1C[C@]1(NC(=O)[C@@H]1C[C@@H](Oc2cccc3c(Cl)ccnc23)CN1C(=O)[C@@H](NC(=O)OC(C)(C)C)C(C)(C)C)C(=O)NS(=O)(=O)C1CC1 (stereo partly drawn) [Compound 242, BOCNH-P3(L-t-BuGly)-P2[(4R)-(4-chloroquinoline-8-oxo)-S -proline]-P1(1R,2S VinylAcca)-CONHSO2Cyclopropane] | < 100 nM | 1000 to 10000 nM | 
C=CC1C[C@]1(NC(=O)[C@@H]1C[C@@H](Oc2nc3ccccc3nc2O)CN1C(=O)[C@@H](NC(=O)OC(C)(C)C)C(C)(C)C)C(=O)NS(=O)(=O)C1CC1 (stereo partly drawn) [Compound 243, BOCNH-P3(L-t-BuGly)-P2[(4R)-(3-hydroxyquinoxaline-2-oxo)-S -proline]-P1(1R,2S VinylAcca)-CONHSO2Cyclopropane] | 100 to 1000 nM | 10000 to 100000 nM | 
C=CC1C[C@]1(NC(=O)[C@@H]1C[C@@H](Oc2nccc3cc(C(=O)N(C)C)ccc23)CN1C(=O)[C@@H](NC(=O)OC(C)(C)C)C(C)(C)C)C(=O)NS(=O)(=O)C1CC1 (stereo partly drawn) [Compound 244, BOCNH-P3(L-t-BuGly)-P2-[(4R) -(6-carboxylic acid dimethylamideisoquinoline-1-oxo)-S-proline]-P1(1R,2S VinylAcca) -CONHSO2Cyclopropane] | < 100 nM | 10000 to 100000 nM | 
